The target of experiment [1] is T1, Sentrin-specific protease 6 (Homo sapiens, UniProt Q9GZR1).
T1 sequence (Q9GZR1 whole entry): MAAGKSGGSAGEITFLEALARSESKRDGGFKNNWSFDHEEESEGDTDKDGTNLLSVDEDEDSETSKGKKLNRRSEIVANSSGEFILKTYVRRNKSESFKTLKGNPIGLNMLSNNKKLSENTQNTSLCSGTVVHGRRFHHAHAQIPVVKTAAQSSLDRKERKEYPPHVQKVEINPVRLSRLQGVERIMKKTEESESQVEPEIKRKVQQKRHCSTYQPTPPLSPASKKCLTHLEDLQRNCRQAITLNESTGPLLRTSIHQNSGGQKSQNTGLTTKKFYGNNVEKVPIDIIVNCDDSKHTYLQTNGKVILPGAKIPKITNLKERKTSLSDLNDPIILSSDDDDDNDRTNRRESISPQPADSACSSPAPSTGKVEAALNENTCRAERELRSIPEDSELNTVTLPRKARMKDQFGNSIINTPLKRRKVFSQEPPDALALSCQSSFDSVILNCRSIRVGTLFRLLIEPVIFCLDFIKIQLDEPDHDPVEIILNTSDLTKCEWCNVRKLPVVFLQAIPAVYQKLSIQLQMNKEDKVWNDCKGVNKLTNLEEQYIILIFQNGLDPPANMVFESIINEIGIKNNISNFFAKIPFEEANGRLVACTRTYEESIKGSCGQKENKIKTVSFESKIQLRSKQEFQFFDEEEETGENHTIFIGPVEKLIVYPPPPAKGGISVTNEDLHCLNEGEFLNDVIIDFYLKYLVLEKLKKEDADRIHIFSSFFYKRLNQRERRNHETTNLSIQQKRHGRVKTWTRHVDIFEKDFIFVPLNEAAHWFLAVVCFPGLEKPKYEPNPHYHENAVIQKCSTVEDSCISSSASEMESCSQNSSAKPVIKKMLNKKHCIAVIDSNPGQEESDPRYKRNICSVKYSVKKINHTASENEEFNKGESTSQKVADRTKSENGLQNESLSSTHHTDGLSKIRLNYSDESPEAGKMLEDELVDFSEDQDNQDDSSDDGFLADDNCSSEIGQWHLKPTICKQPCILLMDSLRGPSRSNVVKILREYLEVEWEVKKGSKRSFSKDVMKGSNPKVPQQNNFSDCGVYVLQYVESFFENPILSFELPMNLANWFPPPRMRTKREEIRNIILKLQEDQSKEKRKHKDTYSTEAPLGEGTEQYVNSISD
Put plainly: SAR Analysis of small molecule inhibitors of Sentrin-specific protease 6 (SENP6) using a Luminescent assay. [Related pubchem assays (depositor defined):AID2582, AID2599]. Format: functional.

The target of experiment [2] is T2, Sentrin-specific protease 8 (Homo sapiens, UniProt Q96LD8).
T2 sequence (Q96LD8 whole entry): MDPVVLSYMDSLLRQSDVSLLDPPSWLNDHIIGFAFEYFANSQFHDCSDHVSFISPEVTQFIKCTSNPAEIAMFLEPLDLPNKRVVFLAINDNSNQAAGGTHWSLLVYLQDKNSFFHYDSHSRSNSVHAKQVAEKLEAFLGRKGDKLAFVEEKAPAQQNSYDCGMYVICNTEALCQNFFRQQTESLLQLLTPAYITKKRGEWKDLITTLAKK
Put plainly: SENP8 protease inhibitors, SAR follow-up, biochemical, luminescence (AID 504501). Format: functional.

A further experiment deals with T3, Caspase-3 (Homo sapiens, UniProt P42574).
T3 sequence (P42574 whole entry): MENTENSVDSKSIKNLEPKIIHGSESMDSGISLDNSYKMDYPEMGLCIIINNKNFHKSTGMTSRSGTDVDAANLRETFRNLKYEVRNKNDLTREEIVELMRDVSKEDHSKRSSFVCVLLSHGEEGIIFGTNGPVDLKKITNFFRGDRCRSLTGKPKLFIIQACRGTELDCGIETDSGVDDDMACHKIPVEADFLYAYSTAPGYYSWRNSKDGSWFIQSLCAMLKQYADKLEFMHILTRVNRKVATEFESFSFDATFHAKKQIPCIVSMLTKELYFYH
Put plainly: SAR Analysis of small molecule inhibitors of Sentrin-specific proteases (SENPs) using a Caspase-3 Selectivity assay. [Related pubchem assays (depositor defined):AID2540, AID2599, AID434973, AID489001]. Format: functional.

Experiment [3] addresses T4, Sentrin-specific protease 7 (Homo sapiens, UniProt Q9BQF6).
T4 sequence (Q9BQF6 whole entry): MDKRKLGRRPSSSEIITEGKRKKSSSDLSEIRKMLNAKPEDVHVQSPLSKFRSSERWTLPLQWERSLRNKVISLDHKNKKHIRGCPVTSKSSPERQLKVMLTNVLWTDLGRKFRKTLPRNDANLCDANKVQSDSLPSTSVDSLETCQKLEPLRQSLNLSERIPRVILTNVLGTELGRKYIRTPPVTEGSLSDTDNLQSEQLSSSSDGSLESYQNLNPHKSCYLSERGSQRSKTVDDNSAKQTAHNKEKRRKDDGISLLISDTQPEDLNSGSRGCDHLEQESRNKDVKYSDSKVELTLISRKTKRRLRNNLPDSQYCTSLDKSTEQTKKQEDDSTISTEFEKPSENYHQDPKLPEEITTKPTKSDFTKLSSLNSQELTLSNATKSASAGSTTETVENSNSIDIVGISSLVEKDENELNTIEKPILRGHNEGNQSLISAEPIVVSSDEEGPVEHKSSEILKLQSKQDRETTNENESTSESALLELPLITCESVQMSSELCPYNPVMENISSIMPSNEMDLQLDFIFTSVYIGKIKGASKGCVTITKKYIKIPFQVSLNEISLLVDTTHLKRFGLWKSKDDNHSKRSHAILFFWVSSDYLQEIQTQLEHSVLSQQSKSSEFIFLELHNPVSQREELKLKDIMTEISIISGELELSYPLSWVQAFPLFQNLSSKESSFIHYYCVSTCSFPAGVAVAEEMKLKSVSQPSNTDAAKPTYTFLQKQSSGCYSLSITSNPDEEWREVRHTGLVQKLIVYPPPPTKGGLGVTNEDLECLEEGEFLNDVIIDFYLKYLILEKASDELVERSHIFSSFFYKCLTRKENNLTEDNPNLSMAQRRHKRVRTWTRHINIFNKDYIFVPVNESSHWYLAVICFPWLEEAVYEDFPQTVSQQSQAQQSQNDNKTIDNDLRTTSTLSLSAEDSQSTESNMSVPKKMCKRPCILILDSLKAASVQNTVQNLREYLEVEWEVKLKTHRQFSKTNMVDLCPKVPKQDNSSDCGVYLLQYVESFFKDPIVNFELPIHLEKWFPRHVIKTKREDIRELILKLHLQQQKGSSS
Put plainly: SENP7 protease inhibitors, SAR follow-up, biochemical, luminescence (AID 504497). The class given is functional.

The target in experiment [4] is T5, Insulin-degrading enzyme (Homo sapiens, UniProt P14735).
T5 sequence (P14735 whole entry): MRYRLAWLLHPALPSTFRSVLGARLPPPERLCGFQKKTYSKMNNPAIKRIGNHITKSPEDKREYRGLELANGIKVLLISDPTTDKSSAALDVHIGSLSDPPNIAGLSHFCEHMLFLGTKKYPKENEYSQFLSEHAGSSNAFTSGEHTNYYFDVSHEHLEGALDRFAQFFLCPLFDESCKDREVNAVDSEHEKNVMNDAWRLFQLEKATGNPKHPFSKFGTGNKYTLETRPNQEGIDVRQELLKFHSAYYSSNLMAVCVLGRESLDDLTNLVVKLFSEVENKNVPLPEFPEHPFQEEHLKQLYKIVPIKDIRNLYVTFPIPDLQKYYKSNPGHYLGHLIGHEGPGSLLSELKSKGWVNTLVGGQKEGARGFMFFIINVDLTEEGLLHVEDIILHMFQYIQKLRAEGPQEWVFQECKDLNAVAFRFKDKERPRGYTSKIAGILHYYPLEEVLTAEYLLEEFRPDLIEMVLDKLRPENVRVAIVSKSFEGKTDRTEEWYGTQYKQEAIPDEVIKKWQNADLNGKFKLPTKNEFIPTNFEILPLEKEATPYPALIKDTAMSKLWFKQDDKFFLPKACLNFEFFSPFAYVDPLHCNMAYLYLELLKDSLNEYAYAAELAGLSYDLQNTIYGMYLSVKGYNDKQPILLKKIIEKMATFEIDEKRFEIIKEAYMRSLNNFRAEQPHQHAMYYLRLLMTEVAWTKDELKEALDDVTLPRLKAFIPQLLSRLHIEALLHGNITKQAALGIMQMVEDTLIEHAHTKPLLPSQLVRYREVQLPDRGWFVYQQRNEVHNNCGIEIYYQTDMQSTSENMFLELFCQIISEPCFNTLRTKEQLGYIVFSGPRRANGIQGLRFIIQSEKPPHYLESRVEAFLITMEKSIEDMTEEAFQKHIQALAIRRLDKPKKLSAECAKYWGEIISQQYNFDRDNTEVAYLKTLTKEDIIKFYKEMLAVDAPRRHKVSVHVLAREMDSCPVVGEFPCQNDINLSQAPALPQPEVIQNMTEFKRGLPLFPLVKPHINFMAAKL
Put plainly: activators of endogenous IDE in HEK cells, dose response, cell-based, fluorescence polarization (AID 588439). The class given is functional.

Experiment [5] concerns HEK293. Nature of the experiment: HEK cell cytotoxicity by LDH release, dose response, cytotoxicity control for IDE activator project, fluorescence, HEK cells (AID 588440).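 Further: cytotoxicity by LDH release measuring loss of membrane integrity.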 Format: functional, cell-based. As to conditions: Homo sapiens.
Experiment [6] deals with T5, Insulin-degrading enzyme. Put plainly: activators of recombinant IDE enzyme, dose response, counter-screen for IDE activator project, biochemical, fluorescence polarization (AID 588681).
For experiment [7], the system named is HEK293. Put plainly: optical interference in Abeta FP readout, dose response, artefact control for IDE activator project, biochemical, fluorescence polarization (AID 588442). As to conditions: Homo sapiens. The class given is functional, cell-based.
For a further experiment, the target named is Beta Lactamase (Pseudomonas aeruginosa, UniProt Q932Y6). Put plainly: beta-lactamase reporter inhibitor potency, dose response, artefact control for TLR9-MyD88 binding inhibitor project, BLA reporter cells, FRET fluorescence (AID 588341).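 Further: cell based assay in CHO-K1 cells stably expressing beta-lactamase.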 The class given is cell-based.
Beta Lactamase, sequence (Q932Y6 whole entry, the tested form may be a part): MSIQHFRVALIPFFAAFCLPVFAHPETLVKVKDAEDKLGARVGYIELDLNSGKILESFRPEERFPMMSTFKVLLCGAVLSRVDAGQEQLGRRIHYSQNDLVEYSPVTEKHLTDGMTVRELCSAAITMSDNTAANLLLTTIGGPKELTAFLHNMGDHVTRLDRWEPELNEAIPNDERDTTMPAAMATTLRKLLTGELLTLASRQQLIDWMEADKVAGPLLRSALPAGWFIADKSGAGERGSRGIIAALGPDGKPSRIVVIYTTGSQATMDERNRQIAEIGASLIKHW
For a further experiment, the system named is CHO. Nature of the experiment: cytotoxicity in TLR9-MyD88 CHO cells, dose response, cytotoxicity control for TLR9-MyD88 binding inhibitor project, cell-based, luminescence (AID 588339).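 Further: CHO cells stably coexpressing TLR9 and MyD88 fusions from primary screen; compound exposure lasted 48 hours before viability readout.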 The class given is functional, hamster. As to conditions: Cricetulus griseus.

Each structure is given as a SMILES string. The source made the active and inactive calls. A value given as a limit tells only on which side of the number the result lay.

Consider `Fc1cc(F)cc(-c2noc(/C=C/c3ccccc3)n2)c1`, for which the IC50 (in experiment [1]; in experiment [2]; at Caspase-3; in experiment [3]) was > 99 µM (inactive) throughout.
For `C=CCN1C(=O)c2ccc(C(=O)OCC(=O)N(CC)C3CCS(=O)(=O)C3)cc2C1=O` (centres undefined), the EC50 on Insulin-degrading enzyme [4], at Insulin-degrading enzyme [6] and in the experiment on HEK293 [7] was > 54.7 µM (inactive) each time. Moreover, in the experiment with HEK293 [5], the IC50 is > 89.2 µM (inactive).
`CCC(=O)c1ccc(/C=C/c2nc3ccccc3n2C)o1`: the values for the IC50 at Beta Lactamase and with CHO were 5.11 µM (active) and > 49.7 µM (inactive), respectively.
As to `COc1ccc(C2C(C#N)=C(/N=C/N(C)C)Oc3c2c(C)nn3-c2ccccc2)cc1` (centres undefined), the IC50 (in [1]; in experiment [2]; on Caspase-3; in [3]) was > 99 µM (inactive) each time.

These data come from ChEMBL document CHEMBL1201862, “PubChem BioAssay data set” (2004).
